For this data set, the target named is SOD1. The following applies: ASO.

Where “and” joins values, the source holds several entries; their conditions need not be identical. Equal entries are not always repeated. After the bases stand the sugars from the 5' end (letter, count) and the backbone: PS all phosphorothioate, else s phosphorothioate and o phosphodiester by linkage. Methylation of C is not given here. e = 2'-O-(2-methoxyethyl) (MOE); k = constrained ethyl (cEt); d = 2'-deoxy (DNA)

“TCCTGGTTCCGAGGACTGCA (sugars e5 d10 e5, PS)” displayed a target mRNA inhibition (HepG2, 4 µM) of 24%.

With “GCCTCAGACTACATCCA (sugars e2 k2 d8 k2 e3, PS)”, where the note is “HepG2, 4 µM”, the target mRNA inhibition came out at 69%.

Under “HepG2, 3 µM”, “ATACAGGTCATTGAAAC (sugars e3 k2 d7 k2 e3, PS)” showed a target mRNA inhibition of 14%.

“GTTTTATAAAACTATAC (sugars e3 k2 d7 k2 e3, PS)” yielded a target mRNA inhibition (HepG2, 3 µM) of 22%.

As for “ACTTTCTTCATTTCCAC (sugars e3 k2 d7 k2 e3, PS)”, the target mRNA inhibition (HepG2, 3 µM) amounted to 15%.

Sequence “TACAGCTAGCAGGATAA (sugars e3 k2 d7 k2 e3, PS)” registered a target mRNA inhibition (HepG2, 3 µM) of 40%.

Consider “CGATCCCAATTACACCA (sugars e3 k2 d7 k2 e3, PS)”, for which the target mRNA inhibition (HepG2, 3 µM) came to 12%.

Consider “CACCACAAGCCAAACGA (sugars e2 k2 d9 k2 e2, PS)”, for which the target mRNA inhibition (HepG2, 4 µM) was found to be 46%.

In the case of “GATTTAAGTCTGGCAAA (sugars e2 k2 d9 k2 e2, PS)”, the target mRNA inhibition (HepG2, 5 µM) is 35%.

The sequence “TTCACTGGTCCATTACT (sugars e3 k2 d7 k2 e3, PS)” showed a target mRNA inhibition (HepG2, 3 µM) of 14%.

“TCGGCCACACCATCTTTGTC (sugars e5 d10 e5, PS)”: the target mRNA inhibition (HepG2, 5 µM) was 32% and 28%.

As for “ACTTTATAGGCCAGACCTCC (sugars e5 d10 e5, PS)”, the target mRNA inhibition (HepG2, 4 µM) worked out at 64%.

Take “AGGATAACAGATGAGTT (sugars e2 k2 d9 k2 e2, PS)”: the target mRNA inhibition came out at 32% (HepG2, 0.1875 µM); 62% (HepG2, 0.75 µM); 89% (HepG2, 3 µM); 86% (HepG2, 4 µM); 98% (HepG2, 12 µM).

Take “CACAGGCTTGAATGACA (sugars e2 k2 d8 k2 e3, PS)”: the target mRNA inhibition (HepG2, 5 µM) was 34%.

Sequence “TGAAAAAGTCACACAATTAC (sugars e5 d10 e5, PS)” yielded a target mRNA inhibition (HepG2, 5 µM) of 0%.

For “CCGCGACTACTTTATAG (sugars e3 k2 d7 k2 e3, PS)”, the target mRNA inhibition (HepG2, 3 µM) came out at 5%.

Take “TTTATAGGCCAGACCTCCGC (sugars e5 d10 e5, PS)”: the target mRNA inhibition reads like this: (HepG2, 4 µM) 68% and 69%; (HepG2, 12 µM) 82%.

In turn, “TCTGTGATTTAAGTCTG (sugars e2 k2 d8 k2 e3, PS)” displayed a target mRNA inhibition (HepG2, 5 µM) of 49%.

As to “GCAGGATAACAGATGAG (sugars e3 k2 d7 k2 e3, PS)”, the target mRNA inhibition reads like this: (HepG2, 0.1875 µM) 39%; (HepG2, 0.75 µM) 60%; (HepG2, 3 µM) 58% and 80%; (HepG2, 12 µM) 90%.

In the case of “CATCGGCCACACCATCTTTG (sugars e5 d10 e5, PS)”, the target mRNA inhibition (HepG2, 5 µM) is 34% and 38%.

Consider “ATGCCTCTCTTCATCCT (sugars e3 k2 d7 k2 e3, PS)”, for which the target mRNA inhibition (HepG2, 3 µM) was determined as 0%.

As for “ATTGAAACAGACATTTTAAC (sugars e5 d10 e5, PS)”, the target mRNA inhibition (HepG2, 5 µM) was found to be 0%.

For “ATCCAAGGGAATGTTTA (sugars e3 k2 d7 k2 e3, PS)”, the target mRNA inhibition (HepG2, 3 µM) was found to be 42%.

The sequence “GCCTCGCCCACTCTGGCCCC (sugars e5 d10 e5, PS)” showed a target mRNA inhibition (HepG2, 4 µM) of 37%.

“ATGATGCCCTGCACTGGGCC (sugars e5 d10 e5, PS)” yielded a target mRNA inhibition (HepG2, 4 µM) of 20%.

For the sequence “GCTTCCCCACACCTTCAC (sugars e5 d8 e5, linkages s1 o3 s9 o2 s2)”, the target mRNA inhibition by setting is: (A431, 0.12 µM) 0%; (A431, 0.6 µM) 1%; (A431, 3 µM) 0%; (A431, 15 µM) 5%; (HepG2, 0.222 µM) 8%; (HepG2, 0.667 µM) 29%. Further, the target mRNA inhibition is, setting by setting: (HepG2, 2 µM) 46%; (HepG2, 6 µM) 76%.

Sequence “TACAGGTCATTGAAACA (sugars e2 k2 d9 k2 e2, PS)” gave a target mRNA inhibition (HepG2, 5 µM) of 38%.

For “CATGGACCACCAGTGTGCGG (sugars e5 d10 e5, PS)”, the target mRNA inhibition (HepG2, 5 µM) was determined as 25%.

The sequence “TTTTATTCACAGGCTTG (sugars e3 k2 d7 k2 e3, PS)” yielded a target mRNA inhibition (HepG2, 3 µM) of 28%.

Turning to “ACATTTCTACAGCTAG (sugars ekddddddddekekee, linkages s1 o1 s8 o3 s2)”, the target mRNA inhibition stood at 1% (A431, 0.12 µM); 27% (A431, 0.6 µM); 32% (A431, 3 µM); 47% (A431, 15 µM).

“TATTGGGCGATCCCAAT (sugars e3 k2 d7 k2 e3, PS)” gave a target mRNA inhibition (HepG2, 3 µM) of 3%.

In turn, “AACATGGAATCCATGCA (sugars e3 k2 d7 k2 e3, PS)” displayed a target mRNA inhibition (HepG2, 3 µM) of 10%.

Consider “GACCTGCACTGGTACAG (sugars e3 k2 d7 k2 e3, PS)”, for which the target mRNA inhibition (HepG2, 3 µM) is 7%.

Turning to “CCCAAGTCATCTGCTTT (sugars e3 k2 d7 k2 e3, PS)”, the target mRNA inhibition (HepG2, 3 µM) was 72%.

For the sequence “GGAATCCATGCAGGCCT (sugars e3 k2 d7 k2 e3, PS)”, the target mRNA inhibition (HepG2, 3 µM) was found to be 7%.

Where the note is “HepG2, 5 µM”, “AGTTTCTCACTACAGGT (sugars e2 k2 d9 k2 e2, PS)” gave a target mRNA inhibition of 50%.

The record behind these values is the OligoGym collection.
